Series [1] in a line: in vitro 3T3 NRU test, cytotoxicity. Type of series: cell-based, mouse. The note with it: mouse, BALB/3T3 clone A31 cells (mouse embryo fibroblasts). On the procedure:
(§1) Compounds 2–5 were studied for cytotoxicity/phototoxicity by an in vitro 3T3 NRU-test. The cell line BALB 3T3, clone A31 (mouse embryo fibroblasts), was incubated with the test compounds at a concentration from 15 to 4000 µg/mL for 24 h at 37 °C, 5% CO2, and 95% humidity. The cytotoxicity and phototoxicity were expressed in percentages relative to the negative control determined. […] Based on the dose–response curves, the CC50/PC50 values (50% cytotoxic/phototoxic concentration) were calculated by nonlinear regression analysis (Table 1). The CC50 values can be used to calculate the PIF (photo-irritancy factor) for each test compound according to the following formula: PIF = CC50/PC50.
(§2) BALB/3T3 cells were cultured in 75 cm^2 tissue culture flasks in DMEM, 10% FBS, 2 mM glutamine, and antibiotics (penicillin 100 U/mL and streptomycin-100 µg/mL) at 37 °C, 5% CO2, and 90% relative humidity. Cytotoxicity/phototoxicity was assessed by a validated BALB/3T3 clone A31 neutral red uptake assay (3T3 NRU test). Briefly, cells were plated in a 96-well microtiter plate at a density of 1 × 10^4 cells/100 µL/well and incubated for 24 h. A wide concentration range was applied for the test compounds. For the phototoxicity tests, 96-well plates were irradiated with a dose of 2.4 J/cm^2, and the cells were incubated for an additional 24 h. After treatment with neutral red medium, washing, and treatment with the ethanol/acetic acid solution, the absorption was measured on a TECAN microplate reader (TECAN, Grödig, Austria) at a wavelength of 540 nm. The light source which we used was a light-emitting diode (LED) matrix—an artificial solar light simulator Helios-iO, model LE-9ND55-H—5500K (SERIC Ltd., Tokyo, Japan).
Cytotoxicity/phototoxicity were expressed as CC50/PC50 values (concentrations required for 50% cytotoxicity/phototoxicity), calculated using non-linear regression analysis (GraphPad Software GraphPad Prism 9.5.1, San Diego, CA, USA). The CC50 values were used to calculate the PIF (photo-irritancy factor) for each test substance, according to the following formula: […]

The subject of the next series is BALB 3T3 cells. In words: in vitro 3T3 NRU test, phototoxicity. Type of series: cell-based, mouse. As to conditions: for IC50: Mus musculus, light or radiation study. On the procedure: as §1, §2
Cytotoxicity/phototoxicity were expressed as CC50/PC50 values (concentrations required for 50% cytotoxicity/phototoxicity), calculated using non-linear regression analysis (GraphPad Software GraphPad Prism 9.5.1, San Diego, CA, USA). The CC50 values were used to calculate the PIF (photo-irritancy factor) for each test substance, according to the following formula:
PIF = Cytotoxicity (CC50)/Phototoxicity (PC50)

In another series the test system is MCF-7. In words: MTT anti-proliferative test, MCF-7. The note with it: for IC50: Homo sapiens, MCF7, MTT. Type of series: cell-based, human. The source says:
(§3) The MCF-10A cell line (normal human mammary epithelial cells) served as a reference control.
(§4) All breast cell lines (MCF-10A, MCF-7, and MDA-MB-231) were purchased from the American Type Culture Collection—ATCC (Manassas, VA, USA). The MCF-7 and MDA-MB-231 were cultivated in Dulbecco’s modified Eagle’s medium (DMEM) and supplemented with 10% fetal bovine serum (FBS), 1% sodium pyruvate, and 1% MEM non-essential amino acids (NEAA) without antibiotics. The non-tumorigenic breast cell line (MCF-10A) was cultivated in DMEM medium (Sigma-Aldrich, St. Louis, MO, USA) and supplemented with 10% FBS, 1% sodium pyruvate, 1% non-essential amino acids (NEAA), 20 ng/mL human epithelia growth factor (hEGF), 10 μg/mL insulin, and 0.5 μg/mL hydrocortisone without antibiotics. All cell lines were maintained in a humidified atmosphere, with 5% CO2 at 37 °C.
(§5) Using the standard MTT-dye reduction assay described by Mosmann, the anti-proliferative activity was tested. The method is based on the metabolism of the tetrazolium salt MTT to insoluble formazan. The formazan absorption was registered using a microplate reader at λ = 540 nm. The measured absorption is an indicator of cell viability and metabolic activity. Anti-proliferative activities were expressed as IC50 values (concentrations required for 50% inhibition of cell growth), calculated using non-linear regression analysis (GraphPad Software, San Diego, CA, USA).

The next series concerns MDA-MB-231. Nature of the series: MTT anti-proliferative test, MDA-MB-231. Type of series: cell-based, human.
Description: as §3, §4, §5

A further series relates to MCF-10A. In words: MTT anti-proliferative test, MCF-10A. Type of series: cell-based. As to conditions: Homo sapiens.
Description: as §3, §4, §5

For the next series, the system named is MDA-MB-435. The arrangement: method as in PMID 23538397. The note with it: cited from earlier work.
For series [2], the system named is A549, HCT116 and MCF-7 cell lines. The arrangement: method as in doi:10.1016/j.cclet.2014.05.043. As to conditions: cell line not stated; cited from earlier work.

Read-outs that look alike come from different tables or passages of the source.

In the case of `CCOC(=O)c1sc2nc(CCCl)nc(N)c2c1C` [Compound 3, Ethyl 4-Amino-2-(2-Chloroethyl)-5-Methylthieno[2,3-d] Pyrimidine-6-Carboxylate], the melting point – broadly, the temperature, or range, at which the solid turns liquid – is 163 to 165 °C. In series [1] (BALB 3T3, 24 h, NRU, no irradiation (CC50), read-out: IC50 of Mean ± SD, Cytotoxicity), the IC50 (in general, the concentration at which inhibition is half-maximal) at 24 h was found to be 674 ± 31.8 µg/mL. In addition, the IC50 at 24 h in series [1] (BALB 3T3, value in brackets, read-out: IC50, Cytotoxicity (converted)) was 2.2 mM. Moreover, in the series on BALB 3T3 cells (BALB 3T3, irradiated 2.4 J/cm^2 (PC50), read-out: IC50 of Mean ± SD, Phototoxicity), the IC50 was 545 ± 40.1 µg/mL. The IC50 in the series with BALB 3T3 cells (BALB 3T3, irradiated, value in brackets, read-out: IC50, Phototoxicity (converted)) is 1.9 mM. The “PIF (photo-irritancy factor)” value in the series with BALB 3T3 cells (PIF = CC50/PC50, <2 not phototoxic) was 1.2. Further, the IC50 in the series with MCF-7 (read-out: IC50 MCF-7 (converted)) is 45 µM. Further, the IC50 with MCF-7 (read-out: IC50 MCF-7 (text)) is 13.4 µg/mL. The IC50 with MCF-7 (read-out: IC50 of Mean ± SD, Anti-Proliferative Activity MCF-7) was 13.4 ± 0.8 µg/mL. Further, the “SI (selective index) MCF-7” value with MCF-7 (IC50 MCF-10A/IC50 MCF-7) was 3.4. In addition, in the series with MDA-MB-231 (Homo sapiens, MDA-MB-231, MTT, read-out: IC50 MDA-MB-231 (converted)), the IC50 is 400 µM. Moreover, the IC50 in the series with MDA-MB-231 (Homo sapiens, MDA-MB-231, MTT, read-out: IC50 of Mean ± SD, Anti-Proliferative Activity MDA-MB-231) turned out to be 131 ± 3 µg/mL. The “SI (selective index) MDA-MB-231” value with MDA-MB-231 (IC50 MCF-10A/IC50 MDA-MB-231) is recorded as 0.3. Further, the IC50 in the series on MDA-MB-231 (MTT, read-out: IC50 MDA-MB-231 (converted)) is 440 µM. Also, the IC50 with MCF-10A (read-out: IC50 MCF-10A (converted)) is 100 µM. Besides, the IC50 with MCF-10A (read-out: IC50 of Mean ± SD, Anti-Proliferative Activity MCF-10A) was 45.3 ± 3.5 µg/mL.

`N.N.[Cl][Pt][Cl]` [Cisplatin, reference compound]: in the series with MCF-7 (tumor cell line not stated, paragraph on MCF-7), the “selective index in the positive control” value was 25.

Regarding `Cc1sc2nc(NCc3ccccc3)[nH]c(=O)c2c1C` [2-(benzylamino)-5,6-dimethylthieno[2,3-d]pyrimidin-4(3H)-one], in the series with MDA-MB-435, the “growth percent (GP)” value was −31.02%.

As to `Cc1cc2c(OCc3cc(-c4ccc(Cl)cc4)no3)ncnc2s1` [6-methyl-4-{[3-(4-chlorophenyl)-isoxazol-5-yl-]-methoxy}-thieno[2,3-d]pyrimidine], in series [2], the IC50 is 4.21 nM.

Values taken from publication PMC10489817, “2-Alkyl-Substituted-4-Amino-Thieno[2,3-d]Pyrimidines: Anti-Proliferative Properties to In Vitro Breast Cancer Models” (Molecules, 2023).
